Test results taken from patent US6472416B1, “Sulfonylphenylpyrazole compounds useful as COX-2 inhibitors” (Abbott Laboratories, priority 1999, dated 2002).

Assays:
[1] = target: T1, recombinant human Cox-1 (r-hu Cox-1, PGHS-1) (Homo sapiens, UniProt P23219); experiment: Recombinant human PGHS-1 (r-hu Cox-1) enzyme assay, PGE2 by EIA; assay type: biochemical; settings: at 100 μM; read-out: r-hu COX1 percent inhibition
T1 construct: made in house; host or cells: baculovirus/Sf9 insect cells (microsomes)
Procedure: (§1) To compare the mean responses of the treatment groups, analysis of variance was applied. Percent inhibition values were determined by comparing the individual treatment mean values to the mean of the control group. Linear regression was used to estimate IC50's/ED50's in appropriate assays.
(§2) EIA reagents for prostaglandin determination were purchased from Perseptive Diagnostics, (Cambridge, Mass.). Prostaglandin E2 (PGE2) levels in lavage fluids were determined after the samples were dried under nitrogen and reconstituted with assay buffer. PGE2 levels in enzyme assays or cell culture media were measured against standards prepared in the same milieu. The immunoassays were conducted as recommended by the manufacturer. The EIA was conducted in 96 well microtiter plates (Nunc Roskilde, Denmark) and optical density was measured using a microplate reader (Vmax, Molecular Devices Corp., Menlo Park, Calif.).
(§3) Inhibition of prostaglandin biosynthesis in vitro was evaluated using recombinant human Cox-1 (r-hu Cox-1) and Cox-2 (r-hu Cox-2) enzyme assays. […] The reaction was allowed to run for 2.5 minutes at room temperature prior to quenching with HCl and neutralization with NaOH. PGE2 production in the presence and absence of the drug was determined by EIA analysis. The EIA was conducted in 96 well microtiter plates (Nunc Roskilde, Denmark) and optical density was measured using a microplate reader (Vmax, Molecular Devices Corp., Menlo Park, Calif.). EIA reagent for prostaglandin determination were purchased from Perseptive Diagnostics (Cambridge, Mass.). PGE2 levels were measured against standards prepared in the same milieu. The immunoassays were conducted as recommended by the manufacturer.
(§4) The compounds are designated by the Example Number. […] Values for Cox-2 inhibition that are parenthetical indicate IC50 values.

[2] = target: T2, recombinant human Cox-2 (r-hu Cox-2, PGHS-2) (Homo sapiens, UniProt P35354); experiment: Recombinant human PGHS-2 (r-hu Cox-2) enzyme assay, PGE2 by EIA; assay type: biochemical; settings: for IC50: read-out: r-hu COX2 IC50 (parenthetical values)
T2 construct: made in house; host or cells: baculovirus/Sf9 insect cells (microsomes)
T2 sequence (P35354 18-604): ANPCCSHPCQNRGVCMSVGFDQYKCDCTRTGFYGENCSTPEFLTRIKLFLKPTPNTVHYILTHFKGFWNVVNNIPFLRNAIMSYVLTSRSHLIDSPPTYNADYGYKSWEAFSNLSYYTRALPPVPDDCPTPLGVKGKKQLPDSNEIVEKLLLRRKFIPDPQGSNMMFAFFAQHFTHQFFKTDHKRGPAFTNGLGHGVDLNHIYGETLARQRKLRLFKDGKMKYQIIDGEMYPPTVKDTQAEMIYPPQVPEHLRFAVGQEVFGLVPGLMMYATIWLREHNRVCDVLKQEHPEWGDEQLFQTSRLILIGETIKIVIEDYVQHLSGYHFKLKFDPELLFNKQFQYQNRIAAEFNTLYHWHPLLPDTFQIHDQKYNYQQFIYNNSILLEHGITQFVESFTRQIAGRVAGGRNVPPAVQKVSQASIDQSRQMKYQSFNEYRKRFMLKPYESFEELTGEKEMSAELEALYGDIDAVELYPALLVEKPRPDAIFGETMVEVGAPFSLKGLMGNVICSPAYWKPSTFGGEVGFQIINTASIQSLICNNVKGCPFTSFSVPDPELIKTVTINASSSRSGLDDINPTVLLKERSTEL
Procedure: as §1, §2, §3, §4

[3] = test system: IL-1β induced PGE2 production in human amnionic WISH cells; experiment: IL-1β Induced PGE2 Production in WISH Cells; assay type: cell-based; settings: IL-1β 18 hour
Procedure: as §2
Human amnionic WISH cells were grown to 80% confluence in 48 well plates. Following removal of the growth medium and two washings with Gey's Balanced Salt Solution, 5 ng IL-1β/ml (UBI, Lake Placid, N.Y.) was added to the cells with or without test compound in DMSO (0.01% v/v) in Neuman-Tytell Serumless Medium (GIBCO, Grand Island, N.Y.). Following an 18 hour incubation to allow for the maximal induction of PGHS-2, the conditioned medium was removed and assayed for PGE2 content by EIA anylysis as described above.
WISH cell values indicate percent inhibition at the particular dose level.

[4] = test system: prostaglandin biosynthesis in vivo; experiment: Rat Carrageenan Pleural Inflammation (CIP) Model; settings: 10 mg/kg oral, 30 minutes prior to intrapleural carrageenan, lavage four hours later
Procedure: For oral administration, test compounds were suspended on the day of use in 100% polyethyleneglycol (PEG 400) with a motorized homogenizer equipped with a Teflon-coated pestle (TRI-R Instrument, Jamaica, N.Y.).
as §1, §2
Pleural inflammation was induced in male adrenalectomized Sprague-Dawley rats following the method of Vinegar et al., Fed. Proc. 1976, 35, 2447-2456. […] Eicosanoids were determined by EIA as described above. […]

T1 sequence (P23219 24-599): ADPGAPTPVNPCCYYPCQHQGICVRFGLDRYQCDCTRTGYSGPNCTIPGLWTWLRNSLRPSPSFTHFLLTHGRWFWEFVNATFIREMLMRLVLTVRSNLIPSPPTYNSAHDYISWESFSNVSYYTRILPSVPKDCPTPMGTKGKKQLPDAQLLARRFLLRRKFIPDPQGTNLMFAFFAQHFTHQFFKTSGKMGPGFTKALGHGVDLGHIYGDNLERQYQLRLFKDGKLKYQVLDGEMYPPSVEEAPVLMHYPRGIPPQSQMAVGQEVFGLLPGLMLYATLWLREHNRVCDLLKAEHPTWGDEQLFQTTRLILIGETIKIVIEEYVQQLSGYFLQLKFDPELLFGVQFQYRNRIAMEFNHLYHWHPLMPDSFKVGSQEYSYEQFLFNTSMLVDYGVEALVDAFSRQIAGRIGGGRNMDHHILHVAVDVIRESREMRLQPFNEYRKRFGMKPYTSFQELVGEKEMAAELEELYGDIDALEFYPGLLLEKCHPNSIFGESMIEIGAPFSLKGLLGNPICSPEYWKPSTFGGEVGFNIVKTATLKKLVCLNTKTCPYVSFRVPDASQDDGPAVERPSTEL

Compound	inhibition at 100 µM [1] [%]	melting point [°C]	further results
CCn1nc(OC2COCCC2=O)c(-c2ccc(F)cc2)c1-c1ccc(S(C)(=O)=O)cc1 (centres unmarked) [Example 23, 3-[(1-Ethyl-4-(4-fluorophenyl)-5-(4-(methylsulphonyl)phenyl)-1H-pyrazol-3-yl)oxy]tetrahydro-4H-pyran-4-one]	27	181 to 182	inhibition at 10 µM ([2]; at 10000 nM, read-out: r-hu COX2 percent inhibition): 43%; inhibition at 0.001 µM ([3]; Homo sapiens, at 1 (nM), read-out: WISH percent inhibition): 80%
1-(4-Fluorophenyl)-2-{[4-(4-fluorophenyl)-1-methyl-5-(4-(methylsulphonyl)phenyl)-1H-pyrazol-3-yl]oxy}ethan-1-one and; 1-(4-Fluorophenyl)-2-{[4-(4-fluorophenyl)-1-methyl-3-(4-(methylsulphonyl)phenyl)-1H-pyrazol-5-yl]oxy}ethan-1-one [Example 35]	–	–	WISH percent inhibition ([3]; at 0.01 (nM)): 38 @ 0.01%; WISH percent inhibition ([3]; at 0.1 (nM)): 95 @ 0.1%
CS(=O)(=O)c1ccc(-c2c(-c3ccc(F)cc3)c(OCC(=O)c3ccc(F)cc3)nn2CC(=O)c2ccc(F)cc2)cc1 [Example 13, 2-[4-(4-Fluorophenyl)-5-(4-(methylsulphonyl)phenyl)-3-(2-oxo-2-(4-fluorophenyl)ethoxy)-1H-pyrazol-1-yl]-1-(4-fluorophenyl)ethan-1-one]	17	194 to 196	inhibition at 0.1 µM ([2]; at 100 nM, read-out: r-hu COX2 percent inhibition): 90%; CIP Inh @ 10 mpk [4]: 22%
CCn1nc(OCC(=O)c2cccs2)c(-c2ccc(F)cc2)c1-c1ccc(S(C)(=O)=O)cc1 [Example 21, 2-[(1-Ethyl-4-(4-fluorophenyl)-5-(4-(methylsulphonyl)phenyl)-1H-pyrazol-3-yl)oxy]-1-(2-thienyl)ethan-1-one]	3	163 to 164	IC50 [2]: 31 nM
CCC(=O)COc1nn(CC(=O)CC)c(-c2ccc(S(C)(=O)=O)cc2)c1-c1ccc(F)cc1 [Example 34]	–	–	WISH percent inhibition ([3]; at 1 (nM)): 62 @ 1%
CS(=O)(=O)c1ccc(-c2c(-c3ccc(F)cc3)c(OCC(=O)c3ccccc3)nn2CC(=O)c2ccccc2)cc1 [Example 12, 2-[4-(4-Fluorophenyl)-5-(4-(methylsulphonyl)phenyl)-3-(2-oxo-2-phenylethoxy)-1H-pyrazol-1-yl]-1-phenylethan-1-one]	0	151 to 152	CIP Inh @ 10 mpk [4]: 38%

Now from value to compound, other results behind:

inhibition at 100 µM [1] [%]	melting point [°C]	Compound	further results
–	189 to 191	CC(=O)n1nc(OCC(=O)C(C)(C)C)c(-c2ccccc2)c1-c1ccc(S(C)(=O)=O)cc1 [Example 32, 1-[(1-Acetyl-5-(4-(methylsulphonyl)phenyl)-4-phenyl-1H-pyrazol-3-yl)oxy]-3,3-dimethylbutan-2-one]	inhibition at 10 pM ([3]; Homo sapiens, at 0.01 (nM), read-out: WISH percent inhibition): 47%
–	158 to 161	CCn1nc(OCC(=O)C(C)(C)C)c(-c2ccccc2)c1-c1ccc(S(C)(=O)=O)cc1 [Example 33, 1-[(1-Ethyl-5-(4-(methylsulphonyl)phenyl)-4-phenyl-1H-pyrazol-3-yl)oxy]-3,3-dimethylbutan-2-one]	inhibition at 1 pM ([3]; Homo sapiens, at 0.001 (nM), read-out: WISH percent inhibition): 78%
0	144 to 146	CCn1nc(OCC(=O)C(C)(C)C)c(-c2ccc(F)cc2)c1-c1ccc(S(C)(=O)=O)cc1 [Example 27, 1-[(1-Ethyl-4-(4-fluorophenyl)-5-(4-(methylsulphonyl)phenyl)-1H-pyrazol-3-yl)oxy]-3,3-dimethylbutan-2-one]	IC50 [2]: 5 nM
–	156 to 158	CC(C)(C)C(=O)COc1nn(CC=C(Cl)Cl)c(-c2ccc(S(C)(=O)=O)cc2)c1-c1ccc(F)cc1 [Example 26, 1-{[1-(3,3-Dichloroallyl)-4-(4-fluorophenyl)-5-(4-(methylsulphonyl)phenyl)-1H-pyrazol-3-yl]oxy}-3,3-dimethylbutan-2-one]	inhibition at 0.0001 µM ([3]; Homo sapiens, at 0.1 (nM), read-out: WISH percent inhibition): 64%
